Among the data in patent US9422293B2 (priority 2006, dated 2016) are IC50 values, retold here.

Where a name gives a salt, the structure may show the parent alone.

Sequence of rat TRPV1 (O35433 whole entry): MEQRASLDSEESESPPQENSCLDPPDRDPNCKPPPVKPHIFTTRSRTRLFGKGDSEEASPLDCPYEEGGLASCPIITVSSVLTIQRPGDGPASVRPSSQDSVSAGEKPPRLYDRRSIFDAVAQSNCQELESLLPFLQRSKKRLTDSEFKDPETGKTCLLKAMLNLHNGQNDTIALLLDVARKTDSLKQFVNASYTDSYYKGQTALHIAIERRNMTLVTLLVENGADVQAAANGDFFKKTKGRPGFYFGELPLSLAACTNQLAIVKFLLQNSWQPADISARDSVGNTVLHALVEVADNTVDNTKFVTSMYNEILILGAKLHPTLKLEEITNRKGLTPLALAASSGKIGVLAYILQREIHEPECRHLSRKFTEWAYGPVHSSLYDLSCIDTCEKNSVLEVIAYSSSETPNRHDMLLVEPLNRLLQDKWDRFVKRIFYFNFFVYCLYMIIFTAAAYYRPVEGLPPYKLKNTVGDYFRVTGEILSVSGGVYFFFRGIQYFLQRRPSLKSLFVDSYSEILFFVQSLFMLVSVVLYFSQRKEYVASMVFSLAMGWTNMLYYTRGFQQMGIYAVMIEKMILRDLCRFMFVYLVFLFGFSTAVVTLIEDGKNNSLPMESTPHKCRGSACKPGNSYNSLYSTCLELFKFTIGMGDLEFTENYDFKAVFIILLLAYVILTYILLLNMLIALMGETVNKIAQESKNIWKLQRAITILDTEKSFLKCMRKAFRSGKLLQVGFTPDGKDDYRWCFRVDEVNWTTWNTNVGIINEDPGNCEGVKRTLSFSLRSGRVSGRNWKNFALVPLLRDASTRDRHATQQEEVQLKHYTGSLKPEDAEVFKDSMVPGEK

This assay concerns the target rat TRPV1 (Rattus norvegicus (Rat), UniProt O35433). Conditions: read-out: Rat IC50.
In general, IC50 refers to the midpoint of a concentration-inhibition curve. Regarding `CC1CCCN(c2nc3c(c(Nc4ccc(C(F)(F)F)cc4)n2)CCN(c2ncccc2C(F)(F)F)CC3)C1` (stereo not shown) [Example 240, 2-(3-Methylpiperidin-1-yl)-N-[4-(trifluoromethyl)phenyl]-7-[3-(trifluoromethyl)pyridin-2-yl]-6,7,8,9-tetrahydro-5H-pyrimido[4,5-d]azepin-4-amine trifluoroacetic acid salt], the half-maximal inhibitory concentration (IC50) amounted to 20 nM.

Turning to `FC1(F)CN(c2nc3c(c(Nc4ccc(C(F)(F)F)cc4)n2)CCN(c2ncccc2C(F)(F)F)CC3)C1` [Example 241, 2-(3,3-Difluoroazetidin-1-yl)-N-[4-(trifluoromethyl)phenyl]-7-[3-(trifluoromethyl)pyridin-2-yl]-6,7,8,9-tetrahydro-5H-pyrimido[4,5-d]azepin-4-amine], the IC50 was 170 nM.

Consider `FC1(F)CCN(c2nc3c(c(Nc4ccc(C(F)(F)F)cc4)n2)CCN(c2ncccc2C(F)(F)F)CC3)CC1` [Example 242, 2-(4,4-Difluoropiperidin-1-yl)-N-[4-(trifluoromethyl)phenyl]-7-[3-(trifluoromethyl)pyridin-2-yl]-6,7,8,9-tetrahydro-5H-pyrimido[4,5-d]azepin-4-amine], for which the IC50 came out at 90 nM.

For the molecule `FC1(F)CCN(c2nc3c(c(Nc4ccc(C(F)(F)F)cc4)n2)CCN(c2ncccc2C(F)(F)F)CC3)C1` [Example 243, 2-(3,3-Difluoropyrrolidin-1-yl)-N-[4-(trifluoromethyl)phenyl]-7-[3-(trifluoromethyl)pyridin-2-yl]-6,7,8,9-tetrahydro-5H-pyrimido[4,5-d]azepin-4-amine trifluoroacetic acid salt], the IC50 was 450 nM.

With `FC(F)(F)c1ccc(Nc2nc(N3CCCOCC3)nc3c2CCN(c2ncccc2C(F)(F)F)CC3)cc1Cl` [Example 245, N-[3-Chloro-4-(trifluoromethyl)phenyl]-2-(1,4-oxazepan-4-yl)-7-[3-(trifluoromethyl)pyridin-2-yl]-6,7,8,9-tetrahydro-5H-pyrimido[4,5-d]azepin-4-amine trifluoroacetic acid salt], the IC50 amounted to 20 nM.

Consider `CC(C)(C)c1ccc(Nc2nc(N3CCCC3)nc3c2CCN(c2ncccc2C(F)(F)F)CC3)cc1` [Example 248, N-[4-(1,1-Dimethylethyl)phenyl]-2-pyrrolidin-1-yl-7-[3-(trifluoromethyl)pyridin-2-yl]-6,7,8,9-tetrahydro-5H-pyrimido[4,5-d]azepin-4-amine], for which the half-inhibitory concentration (IC50) was determined as 530 nM.

In the case of `CC(C)(C)c1ccc(Nc2nc(N3CCC3)nc3c2CCN(c2ncccc2C(F)(F)F)CC3)cc1` [Example 249, 2-Azetidin-1-yl-N-[4-(1,1-dimethylethyl)phenyl]-7-[3-(trifluoromethyl)pyridin-2-yl]-6,7,8,9-tetrahydro-5H-pyrimido[4,5-d]azepin-4-amine], the IC50 was 830 nM.

For the molecule `FC(F)(F)c1ccc(Nc2nc(N3CCCCC3)nc3c2CCN(c2ncccc2C(F)(F)F)CC3)nc1` [Example 250, 2-Piperidin-1-yl-7-[3-(trifluoromethyl)pyridin-2-yl]-N-[5-(trifluoromethyl)pyridin-2-yl]-6,7,8,9-tetrahydro-5H-pyrimido[4,5-d]azepin-4-amine], the IC50 came to 90 nM.

Take `FC(F)(F)c1cccnc1N1CCc2nc(N3CCCCC3)nc(NCc3ccc(Cl)c(Cl)c3)c2CC1` [Example 251, N-[(3,4-Dichlorophenyl)methyl]-2-piperidin-1-yl-7-[3-(trifluoromethyl)pyridin-2-yl]-6,7,8,9-tetrahydro-5H-pyrimido[4,5-d]azepin-4-amine]: the 50% inhibitory concentration (IC50) came out at 1980 nM.

On to `CN(C)CCN(C)c1nc2c(c(Nc3ccc(C(C)(C)C)cc3)n1)CCN(c1ncccc1C(F)(F)F)CC2` [Example 254, N^2-[2-(Dimethylamino)ethyl]-N^4-[4-(1,1-dimethylethyl)phenyl]-N^2-methyl-7-[3-(trifluoromethyl)pyridin-2-yl]-6,7,8,9-tetrahydro-5H-pyrimido[4,5-d]azepine-2,4-diamine], for which the 50% inhibitory concentration (IC50) is 100 nM.
